The text below walks through data of US8273776B2, “Biphenyl oxadiazole derivatives as sphingosine-1-phosphate receptors modulators” (Allergan, Inc, priority 2010, dated 2012).

Each structure is given as a SMILES string.

For the experiment, the target named is T1, human S1P1 receptor (Homo sapiens, UniProt P21453).
T1 construct: expressed in transfected cells; membranes used
Put plainly: GTP γ35S binding assay for S1P1 activity. The settings on record: for % S1P1 STIMULATION @ 5 μM (%): GTPγ^35S binding, compound at 5 μM; for EC50: membranes of cells stably expressing the S1P1 receptor, test compounds 0.08 to 5,000 nM, read-out: S1P1 GTPγ^35S EC50. Type of experiment: biochemical. As to the method: Compounds were synthesized and tested for S1P1 activity using the GTP γ^35S binding assay. These compounds may be assessed for their ability to activate or block activation of the human S1P1 receptor in cells stably expressing the S1P1 receptor.
GTP γ^35S binding was measured in the medium containing (mM) HEPES 25, pH 7.4, MgCl2 10, NaCl 100, dithitothreitol 0.5, digitonin 0.003%, 0.2 nM GTP γ^35S, and 5 μg membrane protein in a volume of 150 μl. Test compounds were included in the concentration range from 0.08 to 5,000 nM unless indicated otherwise. Membranes were incubated with 100 μM 5′-adenylylimmidodiphosphate for 30 min, and subsequently with 10 μM GDP for 10 min on ice. Drug solutions and membrane were mixed, and then reactions were initiated by adding GTP γ^35S and continued for 30 min at 25° C. Reaction mixtures were filtered over Whatman GF/B filters under vacuum, and washed three times with 3 mL of ice-cold buffer (HEPES 25, pH7.4, MgCl2 10 and NaCl 100). Filters were dried and mixed with scintillant, and counted for ^35S activity using a β-counter. Agonist-induced GTP γ^35S binding was obtained by subtracting that in the absence of agonist. Binding data were analyzed using a non-linear regression method. In case of antagonist assay, the reaction mixture contained 10 nM S1P in the presence of test antagonist at concentrations ranging from 0.08 to 5000 nM.
For orientation: GTPγS is a poorly hydrolysed GTP analogue; its binding reports G protein activation.

T1 sequence (P21453 whole entry): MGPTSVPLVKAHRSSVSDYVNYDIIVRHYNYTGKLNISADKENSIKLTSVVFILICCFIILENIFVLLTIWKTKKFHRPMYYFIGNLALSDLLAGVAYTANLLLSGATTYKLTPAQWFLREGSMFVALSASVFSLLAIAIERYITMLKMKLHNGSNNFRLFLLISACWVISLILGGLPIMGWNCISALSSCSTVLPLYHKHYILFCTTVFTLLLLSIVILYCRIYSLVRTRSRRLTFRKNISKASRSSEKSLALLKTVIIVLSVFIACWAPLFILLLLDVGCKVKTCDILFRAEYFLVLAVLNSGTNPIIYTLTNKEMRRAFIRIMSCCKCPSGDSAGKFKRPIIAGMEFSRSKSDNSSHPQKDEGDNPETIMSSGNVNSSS

In the case of `CC(C)Oc1ccc(-c2nc(-c3ccccc3-c3cccc(OCCCO)c3)no2)cc1C#N` [Compound 1, 5-{3-[3′-(3-Hydroxy-propoxy)-biphenyl-2-yl]-[1,2,4]oxadiazol-5-yl}-2-isopropoxy-benzonitrile], the “% S1P1 STIMULATION @ 5 μM (%)” value stood at 76% and the half-maximal effective concentration (EC50) turned out to be 1420 nM.

With `CC(C)Oc1ccc(-c2nc(-c3ccccc3-c3cccc(OCCCNCC(=O)O)c3)no2)cc1C#N` [Compound 3, (3-{2′-[5-(3-Cyano-4-isopropoxy-phenyl)-[1,2,4]oxadiazol-3-yl]-biphenyl-3-yloxy}-propylamino)-acetic acid], the “% S1P1 STIMULATION @ 5 μM (%)” value was 85% and the half-maximal effective concentration (EC50) stood at 82 nM.

On to `O=C(O)CNCCCOc1cccc(-c2ccccc2-c2noc(-c3ccc(-c4cccc(F)c4)c(C(F)(F)F)c3)n2)c1` [Compound 2, (3-{2′-[5-(3′-Fluoro-2-trifluoromethyl-biphenyl-4-yl)-[1,2,4]oxadiazol-3-yl]-biphenyl-3-yloxy}-propylamino)acetic acid], for which the “% S1P1 STIMULATION @ 5 μM (%)” value came out at 96% and the EC50 was 552 nM.

A word on the EC50: it is the concentration that produces a half-maximal response.
